Measured values reported in patent US8981149B2, “Compounds modulating the hedgehog protein signaling pathway, marked forms thereof, and applications” (Centre National De La Recherche Scientifique, priority 2011, dated 2015).
Where “and” joins values, the source holds several entries; their conditions need not be identical. Equal values may be shown once. Where a name gives a salt, the structure may show the parent alone. Read-outs that look alike come from different tables or passages of the source. One block for each compound: values may come before it.

How the values were obtained:
[1] = target: T1, human Smoothened receptor (Homo sapiens, UniProt Q99835); assay: Inhibition of binding of 3H-(7d) to membranes of HEK-hSmo cells; conditions: for Ki: read-out: Ki ± SEM, binding of compound 3H-(7d)
T1 construct: expressed in transfected cells
Procedure: The binding test is carried out on membranes enriched with Smoothened receptor. Cells of the HEK-hSmo line were used for preparing these membranes. The cells are washed and recovered in iced PBS. After centrifugation at 100 g for 7 minutes at 4° C., the pellet is taken up in 10 times its volume of an iced buffer A (50 mM HEPES, pH 7.4, 1 mM EDTA) with addition of 10 μl of a cocktail of protease inhibitors (PEAK, Sigma) per ml of buffer, then it is homogenized using a Polytron grinding mill. After centrifugation at 500 g for 30 minutes at 4° C., which makes it possible to remove the nuclei from the cells, the supernatant is centrifuged again at 48 000 g for 45 min at 4° C. The pellet is taken up in 2 ml of buffer A with PEAK added, then the suspension is homogenized using a glass conical grinding mill and is passed through a 23 G needle. Finally, aliquots are placed in Eppendorf tubes and stored at −80° C. The concentration of total protein in the preparation is determined by Lowry's method using BSA for preparing the standard range.
The membranes are resuspended in a buffer (50 mM HEPES and 3 mM MgCl2) containing 0.2% of BSA. The tests of binding of ^3H-(7d) are carried out in polypropylene tubes. The membranes (2 μg of proteins) are incubated with the ^3H-(7d) in the presence or absence of the cold test compounds for 3 hours at 37° C. in a final volume of 400 μl. Incubation is stopped by immersing the tubes in iced water followed by rapid filtration (Brandel) through a glass fiber filtration membrane (GF/C) treated beforehand with 0.3% of polyethylenimine, which can reduce the nonspecific binding of the ^3H-(7d) to the filtration membrane. The radioactivity retained on the filter is measured in the presence of 3 ml of scintillating agent in a liquid scintillation counter.
In this experiment, the cold ligand competes with the radioactive ligand for binding to the receptor, and the affinity (Ki) of each cold ligand for the receptor can be analyzed based on the IC50 values deduced from the inhibition curves.

C3H10T1/2 cells = assay: Differentiation of C3H10T1/2 cells induced by SAG, alkaline phosphatase (AP) activity; format: cell-based, mouse
Procedure: The test compounds of formula (I) were dissolved in dimethylsulfoxide up to a concentration of 10 mM, then stored at a temperature of −20° C. until used.
The line of C3H10T1/2 pluripotent fibroblast cells (ATCC) was cultured in the conditions recommended by the ATCC. These cells were activated using 0.1 μM of SAG according to the methods described by Chen et al., Proc. Natl. Acad. Sci. USA, 2002, 99, 14071 and Frank-Kamenetsky et al., J. Biol., 2002, 1, 10.
Activation by SAG causes differentiation of the cell line and allows it to express alkaline phosphatase (AP). It was thus possible to measure the activity of the Hedgehog protein signalling pathway via measurement of the alkaline phosphatase (AP) activity.
The C3H10T1/2 cells were seeded on 96-well plates at a density of 5.10^3 cells per well, 24 hours before adding the test compounds at a concentration varying from 1 nM to 30 μM and in the presence of 0.1 μM of SAG, using DMEM (Dulbecco's Modified Eagle's Medium) with 10% fetal calf serum as culture medium. The tests were carried out in quadruplicate. The plates were then incubated for 5 to 6 days at a temperature of 37° C. under 5% CO2 atmosphere. The cells were then washed in cold phosphate buffer (“Phosphate Buffer Serum”: PBS), then lysed by sonication at 4° C. in 50 μL of a solution containing 0.9% of NaCl and 0.2% of Triton X-100.
Measurement of the alkaline phosphatase (AP) activity in the lysates thus obtained was then performed according to the method described by Pepinsky et al. (J. Biol. Chem., 1998, 273, 14037). After adding 100 μL of reaction buffer (200 mM Tris-HCl; pH 10.5; 0.4 M of 2-amino-2-methylpropanol and 8 mM of MgCl2) and 50 μL of substrate (4 mM of p-nitrophenyl disodium phosphate), the lysates were incubated at 37° C. for 30-60 min, then the optical density was read at a wavelength of 415 nm.

PCGs of rat cerebellum = assay: Proliferation of granule cell precursors (PCGs) of rat cerebellum induced by SAG, 3H-thymidine incorporation; format: cell-based; conditions: proliferation induced by SAG (0.01 μM), 3H-thymidine incorporation, read-out: IC50 ± SEM, PCGs of rat cerebellum (3)
Procedure: The granule cell precursors (GCP) are isolated from cerebellums of rats (IFFA-CREDO, France), 8 days after birth (P8). The cerebellums are taken, cut into small pieces, placed in Krebs-Ringer buffer (120 mM NaCl, 5 mM KCl, 1 mM KH2PO4, 25 mM NaHCO3, 15 mM glucose, 0.04 mM phenol red) and incubated for 15 minutes at room temperature in a dissociation buffer composed of Krebs-Ringer with addition of 250 mg/ml of trypsin (Sigma, France). Enzymatic dissociation is stopped by adding an equal volume of Krebs-Ringer buffer containing 250 mg/ml of a trypsin inhibitor and 80 mg/ml of DNase (Sigma, France). The tissue is centrifuged at 100 g for 10 seconds and the pellet obtained is resuspended and triturated using Pasteur pipettes of decreasing diameter to obtain a suspension of isolated cells. This suspension is centrifuged at 200 g for 5 minutes and the pellet obtained is resuspended in Neurobasal medium supplemented with 1 mM of pyruvate, 2 mM L-glutamine, penicillin/streptomycin and 1% of supplement N2, 60 mg/ml N-acetyl cysteine and […] of bovine serum albumin (BSA, Sigma, France).
The cerebellar GCPs obtained are transferred to 96-well plates treated beforehand with poly-D-lysine at a density of 2.10^5 cells/well. SAG in the presence or absence of the other test compounds is added immediately. 12 hours before the end of culture, tritiated thymidine (^3H-thymidine) is added. The cells are aspirated and recovered on a glass fiber filter (GF/C) using an automated cell collector (Brandel, USA). The amount of radioactivity incorporated by the cells was quantified in the presence of a scintillating agent in a liquid scintillation counter (Wallac, USA).
The cerebellar PCGs proliferate in response to activation of the Shh signalling pathway, a response that can be inhibited by the Smo antagonists (Rohatgi et al., 2009, Proc. Natl. Acad. Sci. USA 106: 3196-201). We therefore analyzed the capacity of compound (7d) for inhibiting the proliferation of the PCGs of rat cerebellum in primary culture by measuring the incorporation of tritiated thymidine, a marker of DNA newly synthesized during the proliferation process.

human Smo receptor = target: T2, human Smo receptor (Homo sapiens, UniProt Q99835); assay: Competition with bodipy-cyclopamine (BC) binding in HEK-hSmo cells; conditions: for IC50: bodipy-cyclopamine (5 nM), HEK-hSmo cells, read-out: IC50 ± SEM, BC binding (4)
T2 construct: expressed in transfected cells
Procedure: Cells of the HEK293 line stably transfected with the human Smo receptor are used. The experiment was conducted according to the protocol described in Roudaut et al., Mol. Pharmacol. 79: 453-460, 2011.
At the end of the incubation, the cells are fixed and stained with DAPI, a fluorescent molecule with high affinity for DNA which makes it possible to visualize the nuclei in blue in fluorescence microscopy.

[2] = Binding of 3H-(7d) to membranes of HEK293 cells not transfected with human Smo cDNA; conditions: 1 μM
cells = conditions: Borzillo et al., 2005; cited from earlier work
[3] = 0.35 nM 3H-(7d), HEK-hSmo membranes, 3 hours at 37° C., read-out: IC50 ± SEM, binding of compound 3H-(7d)
[4] = calculated from IC50, HEK-hSmo membranes
[5] = Mus musculus, C3H 10T1/2, AP activity, differentiation induced by SAG (0.1 μM), read-out: IC50 ± SEM, C3H10T1/2 cells (2)
[6] = Mus musculus, C3H 10T1/2, after induction by SAG at 0.1 μM, read-out: IC50, inhibition of alkaline phosphatase (AP) activity, differentiation of C3H10T1/2 cells
[7] = AP activity, differentiation induced by SAG (0.1 μM), read-out: IC50 ± SEM, C3H10T1/2 cells (2)
[8] = after induction by SAG at 0.1 μM, read-out: IC50, inhibition of alkaline phosphatase (AP) activity, differentiation of C3H10T1/2 cells

T2 sequence (Q99835 28-787): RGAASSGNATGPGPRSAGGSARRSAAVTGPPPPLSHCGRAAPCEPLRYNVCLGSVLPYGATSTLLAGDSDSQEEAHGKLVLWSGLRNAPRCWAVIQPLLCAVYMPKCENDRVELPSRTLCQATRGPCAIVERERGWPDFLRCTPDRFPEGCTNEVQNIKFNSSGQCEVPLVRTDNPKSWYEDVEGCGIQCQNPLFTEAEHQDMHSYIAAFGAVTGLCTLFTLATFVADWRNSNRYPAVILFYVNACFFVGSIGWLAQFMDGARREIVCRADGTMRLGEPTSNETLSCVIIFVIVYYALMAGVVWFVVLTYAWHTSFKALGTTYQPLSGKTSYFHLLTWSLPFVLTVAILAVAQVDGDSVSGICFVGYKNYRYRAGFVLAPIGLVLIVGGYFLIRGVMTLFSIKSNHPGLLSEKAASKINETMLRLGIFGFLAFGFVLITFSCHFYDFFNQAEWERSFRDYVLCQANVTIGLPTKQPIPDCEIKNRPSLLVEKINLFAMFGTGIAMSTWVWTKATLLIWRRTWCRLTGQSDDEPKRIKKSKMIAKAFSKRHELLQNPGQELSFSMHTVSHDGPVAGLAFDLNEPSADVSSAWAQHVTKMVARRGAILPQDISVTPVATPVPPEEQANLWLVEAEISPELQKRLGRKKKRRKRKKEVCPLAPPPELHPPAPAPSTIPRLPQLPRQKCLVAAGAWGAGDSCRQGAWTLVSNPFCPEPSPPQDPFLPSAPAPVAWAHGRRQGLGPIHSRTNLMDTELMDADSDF
T1 sequence (Q99835 28-787): as above

IC50 [1, 3]: 0.005 µM and 0.0052 µM
Ki [1, 4]: 0.0024 ± 0.0003 µM
Compound: CNC1CCC(N(Cc2cccc(-c3ccncc3)c2)C(=O)c2sc3ccccc3c2Cl)CC1 (centres unmarked) [SAG]

Inhibition of the binding of compound 3H-(7d), in words ([1]; HEK-hSmo membranes): micromolar order
Compound: COc1cccc(CN(C(=O)CC(C)(C)C)[C@H]2C[C@@H](C(=O)N3CCNCC3)N(Cc3ccc4c(c3)OCO4)C2)c1 [Cur61414]

IC50 (C3H10T1/2 cells; [5]): 0.022 ± 0.003 µM
IC50 (C3H10T1/2 cells; [6]): 0.022 ± 0.003 µM
IC50 (human Smo receptor): 0.008 ± 0.002 µM
IC50 [1, 3]: 0.004 µM and 0.0042 µM
Ki [1, 4]: 0.0019 ± 0.0003 µM
Compound: Cc1c(C(=O)Nc2ccc(N3C[C@@H](C)O[C@@H](C)C3)nc2)cccc1-c1ccc(OC(F)(F)F)cc1 [LDE225]
IC50 (PCGs of rat cerebellum; Rattus norvegicus): 0.003 µM

IC50 (C3H10T1/2 cells; [7]): 0.011 ± 0.003 µM
IC50 (C3H10T1/2 cells; [8]): 0.011 ± 0.003 µM
Block of the binding of BC to HEK-hSmo cells, in words (human Smo receptor; BC 5 nM, 2 hours): very similar and high
IC50 (human Smo receptor): 0.005 ± 0.003 µM
IC50 [1, 3]: 0.011 µM and 0.0105 µM
Ki [1, 4]: 0.0048 ± 0.0012 µM
Compound: COc1cc(C(=O)NC(N)=Nc2ccc(C)c(NC(=O)c3ccc(-c4ccccc4)cc3)c2)cc(OC)c1OC [MRT-83]
IC50 (PCGs of rat cerebellum): 0.006 µM

IC50 (C3H10T1/2 cells; [5]): 0.01 ± 0.003 µM
IC50 (C3H10T1/2 cells; [6]): 0.01 ± 0.001 µM
Inhibition of the specific binding of compound 3H-(7d) at a single concentration ([1]; 1 μM): completely inhibits
Compound: CS(=O)(=O)c1ccc(C(=O)Nc2ccc(Cl)c(-c3ccccn3)c2)c(Cl)c1 [GDC-0449]
IC50 (PCGs of rat cerebellum; Rattus norvegicus): 0.008 ± 0.001 µM
Effect on the binding of compound 3H-(7d) to non-transfected membranes [2]: no effect

Compound: cyclopamine
IC50 (C3H10T1/2 cells; [7]): 0.62 ± 0.03 µM
IC50 (C3H10T1/2 cells; [8]): 0.62 ± 0.03 µM
IC50 (PCGs of rat cerebellum): 0.103 µM
Concentration cytotoxic for the cells (cells): above 10 μM

IC50 (C3H10T1/2 cells; [6]): 0.057 ± 0.002 µM
Compound: COc1cc(C(=O)NC(=N)Nc2ccc(C)c(NC(=O)c3ccc(C/C=C/c4ccccc4)cc3)c2)cc(OC)c1OC [Compound 7e, (E)-N—(N-(3-(4-cinnamylbenzamido)-4-methylphenyl)carbamimidoyl)-3,4,5-trimethoxybenzamide hydrochloride]

IC50 (C3H10T1/2 cells; [6]): 0.028 ± 0.003 µM
Compound: COc1cc(C(=O)NC(=N)Nc2ccc(C)c(NC(=O)c3ccc4c(c3)Cc3ccccc3-4)c2)cc(OC)c1OC [Compound 7b, N-(2-methyl-5-(3-(3,4,5-trimethoxybenzoyl)guanidino)phenyl)-9H-fluorene-2-carboxamide hydrochloride]

IC50 (C3H10T1/2 cells; [6]): 0.032 ± 0.011 µM
Compound: COc1cc(C(=O)NC(=N)Nc2ccc(C)c(NC(=O)c3ccc(C(=O)c4ccccc4)cc3)c2)cc(OC)c1OC [Compound 7a, N—(N-(3-(4-benzoylbenzamido)-4-methylphenyl)carbamimidoyl)-3,4,5-trimethoxybenzamide hydrochloride]

IC50 (C3H10T1/2 cells; [6]): 0.22 ± 0.025 µM
Compound: COc1cc(C(=O)NC(=N)Nc2ccc(C)c(NC(=O)c3ccc(Cc4ccccc4)cc3)c2)cc(OC)c1OC [Compound 7g, N—(N-(3-(4-benzylbenzamido)-4-methylphenyl)carbamimidoyl)-3,4,5-trimethoxybenzamide hydrochloride]

IC50 (C3H10T1/2 cells; SAG 0.1 μM, Mean ± SEM, n ≧ 3, read-out: IC50, differentiation of C3H10T1/2 cells): 0.9 ± 0.2 µM
Compound: COc1cc(C(=O)NC(=S)Nc2cccc(NC(=O)c3ccccc3)c2)cc(OC)c1OC [MRT-10]

IC50 ± SEM, binding of compound 3H-(7d) ([1]; 0.35 nM 3H-(7d), HEK-hSmo membranes, 3 hours at 37° C.): inactive
Inhibition of the binding of compound 3H-(7d), in words ([1]; HEK-hSmo membranes): not active
IC50 ([1]; HEK-hSmo membranes, agonists (FIG. 5), read-out: IC50, binding of compound 3H-(7d), unit inferred): > 1 µM
Ki ± SEM, binding of compound 3H-(7d) [1, 4]: inactive
Compound: c1ccc2c(Oc3nc(Nc4ccc(N5CCOCC5)cc4)c4ncn(C5CCCCC5)c4n3)cccc2c1 [Purmorphamine, purmorphamine]

IC50 (C3H10T1/2 cells; [6]): 0.072 ± 0.015 µM
Compound: COc1cc(C(=O)NC(=N)Nc2ccc(C)c(NC(=O)c3ccc(OCc4ccccc4)cc3)c2)cc(OC)c1OC [Compound 7h, N—(N-(3-(4-(benzyloxy)benzamido)-4-methylphenyl)carbamimidoyl)-3,4,5-trimethoxybenzamide hydrochloride]
